Blank lines part the entries; values can stand above or below the molecule they belong to.
Columns and labels:
[1] = system: p110β/p85β-nic; experiment: ATPase activity (ADP formation) in the absence of lipid substrate, Transcreener; assay type: biochemical, mouse; details: absence of lipid substrate; 75 nM protein, 100 μM ATP; 5 μM GDC0941 or D913N mutation; Figure S3B
Procedure: (§1) Figure 1 Inhibition of p110β by p85-Type Regulatory Subunits and Activation of the Complexes by RTK Phosphopeptide (A) Domain organization of p110β and the regulatory subunits p85α, p85β, and p55γ. The color scheme for the domains is used for all figures, unless otherwise stated. […] The inhibition is released upon addition of the 10 μM PDGFR pY2. […] The y axis is expressed as a change in fluorescence polarization (ΔmP), which is obtained by subtracting the observed polarization for the construct at a given enzyme concentration from the maximum fluorescence polarization for that construct. The plateau in these assays arises due to the competitive nature of the ADP detection system, based on displacement of ADP-Alexa 633 tracer from the ADP^2-antibody by ADP generated during the PI3K assay (see Supplemental Experimental Procedures). All measurements were done in triplicates, and the error bars indicate the standard error of the mean (SEM). […]
The lipid kinase activity was determined using the Transcreener ADP2 FP Assay (BellBrook Labs, Madison, WI) according to manufacturer‟s specifications. This non-radioactive assay measures activity by quantitating the amount of ADP formed. The ADP formed by PI3K competes with fluorescent ADP tracer for binding to an anti-ADP antibody, thereby decreasing fluorescence polarization. […]

[2] = system: p110β; experiment: Transcreener ADP formation (fluorescence polarization), diC8-PIP2/POPS liposomes, mouse p110β complexes; assay type: biochemical; details: absence of pY2; ADP formation; Figures 3A, 3B
Procedure: as §1
Figure 3 Mutation Y677A in p85β-cSH2 Releases Inhibitory Effect on p110β (A) Kinase activity (ADP formation) of p110β in a complex with p85β-icSH2-Y677A (Y677A-ic) compared to the wild-type complex (ic) in the absence and presence of 10 μM PDGFR pY2 (ADP formation on the y axis expressed as in Figure 1B). […]
The lipid kinase activity was determined using the Transcreener ADP2 FP Assay (BellBrook Labs, Madison, WI) according to manufacturer‟s specifications. This non-radioactive assay measures activity by quantitating the amount of ADP formed. The ADP formed by PI3K competes with fluorescent ADP tracer for binding to an anti-ADP antibody, thereby decreasing fluorescence polarization. Because of the competitive nature of this assay, the change in fluorescence polarization signal is not a linear function of enzyme activity, and a convenient measure of enzyme activity is the EC50, or the concentration of enzyme necessary to give half-maximal inhibition of labeled ADP binding to the antibody, for a given concentration of substrate and a fixed time of reaction at initial rate. […]

[3] = system: PKB; experiment: PKB phosphorylation in transfected HEK cells (Western blot); assay type: cell-based, human
Procedure: Figure 4 cSH2 Is Important for p110β Inhibition In Vitro and in Cells (A) Kinase activity of human p110β and icSH2 wild-type constructs from three human regulatory subunits (p85α, p85β, and p55γ) in the absence and presence of 10 μM PDGFR pY2 (y axis as in Figure 1B). EC50s for wild-type and icSH2 tyrosine mutants, in the absence and presence of 10 μM PDGF pY2, are shown. (B) Western blots of HEK cells transiently expressing wild-type and mutant human p110β/p85α. The membrane was probed with antibodies against PKB, pPKB (pSer473), myc (p110β), FLAG (p85α), and actin. Bar graphs show mean ± SEM (n = 3) of PKB phosphorylation level normalized to wild-type p110β/p85α (WT). The position of the three mutations is mapped on the p110β/p85β structure. TEXT PRINTED IN THE PICTURE: (A) p110β/p85α-ic: EC50 (nM): 3 | (A) p110β/p85α-ic+pY2: EC50 (nM): 0.3 | (A) p110β/p85β-ic: EC50 (nM): 1.2 | (A) p110β/p85β-ic+pY2: EC50 (nM): 0.3 | (A) p110β/p55γ-ic: EC50 (nM): 1.5 | (A) p110β/p55γ-ic+pY2: EC50 (nM): 0.3 | (A) p110β/p85α-ic-Y685A: EC50 (nM): 0.3 | (A) p110β/p85α-ic-Y685A+pY2: EC50 (nM): 0.3 | (A) p110β/p85β-ic-Y683A: EC50 (nM): 0.4 | (A) p110β/p85β-ic-Y683A+pY2: EC50 (nM): 0.3 | (A) p110β/p55γ-ic-Y419A: EC50 (nM): 0.2 | (A) p110β/p55γ-ic-Y419A+pY2: EC50 (nM): 0.2 […]
Figure S4, Related to Figure 4. Tyr-Mutation in cSH2 Activates PI3K Downstream […]
(A) Western blot of HEK cells over-expressing wild-type and mutant human p110β/p85α complexes. Protein kinase B (PKB) phosphorylation (pPKB) levels at residues Ser473 and Thr308 were quantified and normalized WT p110β/p85α (WT).
(B) Quantification of PtdIns(3,4,5)P3 levels in HEK cells over-expressing wild-type and mutant human p110β/p85α complexes. Phospholipids were extracted from cells and PtdIns(3,4,5)P3 and PtdIns(4,5)P2 levels were quantified by mass spectrometry.
PtdIns(3,4,5)P3 / […] for each construct for two separate experiments measured in duplicates. Error bars indicate SEM. […]
The PIP3 lipids produced in PI3K in vitro assays as described above were also measured by a mass-spectrometry based assay (Clark et al.). […]

inhibition of ATPase activity [1]: fully inhibited
Molecule: CS(=O)(=O)N1CCN(Cc2cc3nc(-c4cccc5[nH]ncc45)nc(N4CCOCC4)c3s2)CC1 [GDC0941, 2-(1H-indazol-4-yl)-6-(4-methanesulfonyl-piperazin-1-ylmethyl)-4-morpholin-4-yl-thieno[3,2-d]pyrimidine]

Molecule: nicSH2-Y677A: p110β complex with regulatory construct containing wild-type nSH2 but mutant cSH2-Y677A
basal activity versus wild-type complex [2]: basal activity higher than the wild-type

Molecule: p110β/p85α-N564D: heterodimer carrying somatic p85α mutation N564D
phosphorylation of PKB Ser473 ([3]; HEK cells, Figure 4B, n = 3): increase in phosphorylation
phosphorylation of PKB Thr308 ([3]; HEK cells, Figure S4A): increase in phosphorylation

Molecule: p85α-Y685A: full-length human p85α-Y685A cotransfected with human wild-type p110β
increase in PKB phosphorylation relative to wild-type heterodimer ([3]; HEK293T cells cotransfected with human p110β and p85α mutant, pSer473 mean n = 3, Figures 4B and S4A): 2 fold
